As usually defined, the MIC is the least concentration at which growth counts as inhibited. A higher MIC goes with a need for much substance.

In brackets after ≈: the same amount, converted by molar mass.

The subject of one data set is Proteus mirabilis. Briefly: Antimicrobial activity test, Proteus mirabilis. It counts as cell-based.
The next data set has as its system Enterobacter aerogenes. Briefly: Antimicrobial activity test, Enterobacter aerogenes. In kind it is cell-based. The settings on record: Klebsiella aerogenes.
The next data set has as its system Serratia marcescens. Briefly: Antimicrobial activity test, Serratia marcescens. In kind it is cell-based.
Another data set has as its system Escherichia coli. Briefly: Antimicrobial activity test, Escherichia coli. It counts as cell-based.
The subject of data set [1] is Staphylococcus epidermidis. The data set can be described thus: Antimicrobial activity test, Staphylococcus epidermidis. It counts as cell-based.
Data set [2] is described as follows: Oral dosage absorbability: urinary excretion rate after oral administration, mouse. It counts as in vivo. The following applies: urine, dose: 50 mg/kg. How it is done: (§1) Results of oral dosage absorbability tests
(§2) Urinary excretion rate after oral
(§3) Test compd. administration (dose: 50 mg/kg)

Data set [3] in a line: Oral dosage absorbability: urinary excretion rate after oral administration, rat. It counts as in vivo. The following applies: urine, dose: 50 mg/kg. How it is done:
as §1, §2, §3

In data set [4] the test system is β-lactamase producing resistant bacteria. The following applies: cephem antibiotics in use for oral administration; cited from earlier work.
The next data set has as its system bacteria. The settings on record: cephem antibiotics in use for oral administration; cited from earlier work.

For `CO/N=C(\C(=O)NC1C(=O)N2C(C(=O)O)=C(COC(N)=O)CS[C@H]12)c1cscn1` (some centres unmarked) [Example 1, 7-[(Z)-2-Methoxyimino-2-(thiazol-4-yl)acetamido]-3-carbamoyloxymethyl-3-cephem-4-carboxylic acid], the minimal inhibitory concentration (MIC) in the data set on Proteus mirabilis is no more than 0.013 µg/mL; against Enterobacter aerogenes, 0.39 µg/mL (≈ 0.883 µM); against Serratia marcescens it was 1.56 µg/mL (≈ 3.53 µM); against Escherichia coli, 0.05 µg/mL (≈ 0.113 µM); in data set [1], 1.56 µg/mL (≈ 3.53 µM).
Regarding `CO/N=C(\C(=O)NC1C(=O)N2C(C(=O)OCOC(=O)C(C)(C)C)=C(COC(N)=O)CS[C@H]12)c1cscn1` (some centres unmarked) [Example 5, Pivaloyloxymethyl 7-[(Z)-2-methoxyimino-2-(thiazol-4-yl)acetamido]-3-carbamoyloxymethyl-3-cephem-4-carboxylate], the dose excreted came to 64% in data set [2] and 30% in [3].
On to `CCO/N=C(\C(=O)NC1C(=O)N2C(C(=O)O)=C(COC(N)=O)CSC12)c1cscn1` (centres unmarked) [Example 10], for which the MIC against Proteus mirabilis came to 0.05 µg/mL (≈ 0.11 µM); against Enterobacter aerogenes, 0.78 µg/mL (≈ 1.71 µM); in the data set with Serratia marcescens, 3.13 µg/mL (≈ 6.87 µM); against Escherichia coli it was 0.2 µg/mL (≈ 0.439 µM); in data set [1] it was 3.13 µg/mL (≈ 6.87 µM).
In the case of `NC(=O)OCC1=C(C(=O)O)N2C(=O)C(NC(=O)/C(=N\O)c3cscn3)[C@H]2SC1` (some centres unmarked) [Example 16, 7-[(Z)-2-hydroxyimino-2-(thiazol-4-yl)acetamido]-3-carbamoyloxymethyl-3-cephem-4-carboxylic acid], the MIC in the data set with Proteus mirabilis was determined as 0.78 µg/mL (≈ 1.82 µM); in the data set with Enterobacter aerogenes, 1.56 µg/mL (≈ 3.65 µM); against Serratia marcescens, 3.13 µg/mL (≈ 7.32 µM); in the data set with Escherichia coli it was 0.39 µg/mL (≈ 0.912 µM); in [1], 1.56 µg/mL (≈ 3.65 µM).
Take `N[C@@H](C(=O)N[C@@H]1C(=O)N2C(C(=O)O)=C(Cl)CS[C@H]12)c1ccccc1` [cefaclor]: the “effect on β-lactamase producing resistant bacteria” value (shortened to “effect”) in [4] is reported as “ineffective”. For the same molecule, the “antimicrobial activity and width of antimicrobial spectrum” value (“antimicrobial activity and width” below) in the data set on bacteria is recorded as “slightly inferior”.
Consider `N[C@@H](C(=O)N[C@@H]1C(=O)N2C(C(=O)O)=C(CSc3c[nH]nn3)CS[C@H]12)c1ccc(O)cc1` [cefatrizine], for which, in data set [4], the “effect” value was “ineffective”. The “antimicrobial activity and width” value in the data set with bacteria is on record as “slightly inferior”.
`CC1=C(C(=O)O)N2C(=O)[C@@H](NC(=O)[C@H](N)c3ccccc3)[C@H]2SC1` [cephalexin]: the “effect” value in data set [4] is “ineffective”. Moreover, in the data set on bacteria, the “antimicrobial activity and width” value was “slightly inferior”.

The values above are taken from patent US4705784A, “Cephem compounds” (Sumitomo Pharmaceuticals Company, Limited, priority 1983, dated 1987).
